The text below walks through data of US12378231B2, “Small molecules as monoacylglycerol lipase (MAGL) inhibitors, compositions and use thereof” (APOGEE PHARMACEUTICALS, INC., priority 2023, dated 2025).

As usually defined, the IC50 is the concentration that inhibits the measured activity by half.

Assay [1] has as its target human recombinant MAGL (Homo sapiens (Human), UniProt Q99685). Put plainly: In vitro inhibition of human recombinant MAGL activity (Cayman inhibitor screening kit, 4-nitrophenylacetate hydrolysis). It counts as biochemical. From the text: The inhibitory effect of the synthetic chemicals on activity of human recombinant MAGL was studied using commercial inhibitor screening kit (Cayman Chemical). […] The absorbance of the yellow product can be analyzed using the plate reader. […]

For assay [2], the target named is human recombinant FAAH (Homo sapiens (Human), UniProt O00519). Put plainly: In vitro inhibition of human recombinant FAAH activity (Cayman FAAH inhibitor screening kit, AMC arachidonoyl amide hydrolysis). In kind it is biochemical. An excerpt: In brief, FAAH hydrolyzes AMC arachidonoyl amide resulting in the release of the fluorescent product, while the inhibitor will inhibit the FAAH activity and thus reduce the fluorescent signal.

Setting [3] is: human recombinant MAGL, read-out: Inhibition on MAGL activity (IC50).

Where two headings read alike, the source gives them in different places.

Sequence of human recombinant MAGL (Q99685 whole entry): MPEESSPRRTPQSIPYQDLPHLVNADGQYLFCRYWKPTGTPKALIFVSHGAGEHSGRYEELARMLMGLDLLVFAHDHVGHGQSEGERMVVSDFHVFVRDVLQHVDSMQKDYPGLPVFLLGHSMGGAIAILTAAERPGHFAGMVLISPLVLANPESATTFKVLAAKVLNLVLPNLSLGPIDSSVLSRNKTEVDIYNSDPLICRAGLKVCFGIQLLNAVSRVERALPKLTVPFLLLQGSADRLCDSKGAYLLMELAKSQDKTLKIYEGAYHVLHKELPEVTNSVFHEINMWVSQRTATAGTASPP
Sequence of human recombinant FAAH (O00519 whole entry): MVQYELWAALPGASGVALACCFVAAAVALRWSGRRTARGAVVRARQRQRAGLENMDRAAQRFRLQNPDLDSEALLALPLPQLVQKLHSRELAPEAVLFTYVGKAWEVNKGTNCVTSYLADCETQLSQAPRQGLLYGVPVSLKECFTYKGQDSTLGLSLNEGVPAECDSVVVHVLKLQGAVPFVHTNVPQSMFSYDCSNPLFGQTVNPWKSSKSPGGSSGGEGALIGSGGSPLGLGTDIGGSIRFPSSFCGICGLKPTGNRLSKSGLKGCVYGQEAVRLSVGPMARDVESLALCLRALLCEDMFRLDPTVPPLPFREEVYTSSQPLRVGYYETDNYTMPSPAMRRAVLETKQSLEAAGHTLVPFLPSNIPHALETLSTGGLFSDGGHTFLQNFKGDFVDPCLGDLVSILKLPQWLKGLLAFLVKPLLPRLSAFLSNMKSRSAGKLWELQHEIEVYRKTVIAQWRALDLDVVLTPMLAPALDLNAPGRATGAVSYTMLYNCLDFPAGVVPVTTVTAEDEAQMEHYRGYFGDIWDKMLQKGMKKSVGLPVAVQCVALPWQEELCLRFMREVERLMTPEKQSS

Take `N#Cc1ncn(C(=O)N2CCN(C(c3ccc4occc4c3)c3ccc4occc4c3)CC2)n1` [Example 117, 1-(4-(di(benzofuran-5-yl)methyl)piperazine-1-carbonyl)-1H-1,2,4-triazole-3-carbonitrile]: the IC50 lay in the range of 1 to 10 nM in assay [1] (setting [3]) and 100 to 1000 nM in assay [2].
In the case of `COc1ccc(C(c2ccc3c(c2)COCO3)N2CCN(C(=O)n3cnc(C#N)n3)CC2)cn1` (stereo not drawn) [Example 118, 1-(4-((4H-benzo[d][1,3]dioxin-6-yl)(6-methoxypyridin-3-yl)methyl)piperazine-1-carbonyl)-1H-1,2,4-triazole-3-carbonitrile], the IC50 in assay [1] (setting [3]) is 1 to 10 nM; in assay [2], around 10000 nM.
Take `N#Cc1ncn(C(=O)N2CCN(C(c3ccc(-n4cccn4)cc3)c3ccc4c(c3)COCO4)CC2)n1` (stereo not drawn) [Example 120, 1-(4-((4-(1H-pyrazol-1-yl)phenyl)(4H-benzo[d][1,3]dioxin-6-yl)methyl)piperazine-1-carbonyl)-1H-1,2,4-triazole-3-carbonitrile]: the IC50 in assay [1] (setting [3]) was 1 to 10 nM; in assay [2], above 50000 nM.
For `N#Cc1ccc2c(c1)nnn2C(=O)N1CCN(C(c2ccc(F)cc2)c2ccc(F)cc2)CC1` [Example 121, 1-(4-(bis(4-fluorophenyl)methyl)piperazine-1-carbonyl)-1H-benzo[d][1,2,3]triazole-5-carbonitrile], in that order: 1 to 10 nM and around 100 nM.
As for `Cn1ncc2cc(C(=C3CCN(C(=O)n4nnc5ccccc54)CC3)c3ccc4c(cnn4C)c3)ccc21` [Example 122, (1H-benzo[d][1,2,3]triazol-1-yl)(4-(bis(1-methyl-1H-indazol-5-yl)methylene)piperidin-1-yl)methanone], the IC50 in assay [1] (setting [3]) is 10 to 100 nM; in assay [2], around 50000 nM.
Taken in the same sequence, the figures for `Cn1ncc2cc(C(=C3CCN(C(=O)n4cnc(C#N)n4)CC3)c3ccc4c(cnn4C)c3)ccc21` [Example 123, 1-(4-(bis(1-methyl-1H-indazol-5-yl)methylene)piperidine-1-carbonyl)-1H-1,2,4-triazole-3-carbonitrile] were 1 to 10 nM and around 10000 nM.
Taken in the same sequence, the figures for `N#Cc1ncn(C(=O)N2CCC(=C(c3ccc4c(c3)COCO4)c3ccc4c(c3)COCO4)CC2)n1` [Example 124, 1-(4-(bis(4H-benzo[d][1,3]dioxin-6-yl)methylene)piperidine-1-carbonyl)-1H-1,2,4-triazole-3-carbonitrile] were 1 to 10 nM and 1000 to 10000 nM.
For `N#Cc1ncn(C(=O)N2CC3CC(=C(c4ccc5c(c4)COCO5)c4ccc5c(c4)COCO5)CC3C2)n1` (stereo not drawn) [Example 125, meso-1-(5-(bis(4H-benzo[d][1,3]dioxin-6-yl)methylene)octahydrocyclopenta[c]pyrrole-2-carbonyl)-1H-1,2,4-triazole-3-carbonitrile], in that order: 1 to 10 nM and 1000 to 10000 nM.
Take `N#Cc1ncn(C(=O)N2CC3(CC(=C(c4ccc5c(c4)COCO5)c4ccc5c(c4)COCO5)C3)C2)n1` [Example 126, 1-(6-(bis(4H-benzo[d][1,3]dioxin-6-yl)methylene)-2-azaspiro[3.3]heptane-2-carbonyl)-1H-1,2,4-triazole-3-carbonitrile]: the IC50 was in the range of 1 to 10 nM in assay [1] (setting [3]) and 1000 to 10000 nM in assay [2].
`N#Cc1ncn(C(=O)N2C3CCC2CC(=C(c2ccc4c(c2)COCO4)c2ccc4c(c2)COCO4)C3)n1` [Example 127, 1-(3-(bis(4H-benzo[d][1,3]dioxin-6-yl)methylene)-8-azabicyclo[3.2.1]octane-8-carbonyl)-1H-1,2,4-triazole-3-carbonitrile]: the IC50 is 1 to 10 nM in assay [1] and above 50000 nM in assay [2].
Consider `N#Cc1ncn(C(=O)N2CCCC(=C(c3ccc4c(c3)COCO4)c3ccc4c(c3)COCO4)CC2)n1` [Example 128, 1-(4-(bis(4H-benzo[d][1,3]dioxin-6-yl)methylene)azepane-1-carbonyl)-1H-1,2,4-triazole-3-carbonitrile], for which the results for the IC50 in assay [1] (setting [3]) and in assay [2] were 1 to 10 nM and 1000 to 10000 nM, respectively.
On to `N#Cc1ncn(C(=O)N2CCC(C(c3ccc4c(c3)COCO4)c3ccc4c(c3)COCO4)CC2)n1` [Example 129, 1-(4-(bis(4H-benzo[d][1,3]dioxin-6-yl)methyl)piperidine-1-carbonyl)-1H-1,2,4-triazole-3-carbonitrile], for which the values for the half-maximal inhibitory concentration (IC50) in assay [1] (setting [3]) and in assay [2] were 1 to 10 nM and 1000 to 10000 nM, respectively.
`N#Cc1ncn(C(=O)N2C3CCC2CC(C(c2ccc4c(c2)COCO4)c2ccc4c(c2)COCO4)C3)n1` (stereo not drawn) [Example 130, 1-(3-(bis(4H-benzo[d][1,3]dioxin-6-yl)methyl)-8-azabicyclo[3.2.1]octane-8-carbonyl)-1H-1,2,4-triazole-3-carbonitrile]: the results for the concentration for half-maximal inhibition (IC50) in assay [1] and in assay [2] were 1 to 10 nM and above 50000 nM, respectively.
Turning to `O=C(Nc1cnccc1Cl)N1CCN(Cc2ccc3c(c2)OC(F)(F)O3)CC1` [JNJ-42165279, reference compound], the IC50 was above 50000 nM in assay [1] (setting [3]) and 106 nM in assay [2].
Taken in the same sequence, the figures for `O=C(Nc1cccnn1)N1CCC(=Cc2cccc(Oc3ccc(C(F)(F)F)cn3)c2)CC1` [PF-04457845, reference compound] were above 10000 nM and 1.9 nM.
